From patent publication EP4603105A1, “PHARMACEUTICAL COMPOSITION CONTAINING CYCLIC COMPOUND HAVING SELECTIVE KRAS INHIBITORY EFFECT AGAINST HRAS AND NRAS” (CHUGAI SEIYAKU KABUSHIKI KAISHA, priority 2022, dated 2024)
Where two headings read alike, the source gives them in different places. *1 amine or outer side, *2 acyl side, *3 side chain or, on linkers, in order; H or OH if unused. Where a SMILES comes first, the peptide text is derived from it. Bridges are numbered along the chain shown (N, C = ends). [ ]: non-standard residue; d: D form. The star is where a group is joined. hPhe(3-Cl-4-CF3) = N[C@@H](CCc1ccc(C(F)(F)F)c(Cl)c1)C(=O)O; NPrPhe(4-CF3) = CCCN[C@@H](Cc1ccc(C(F)(F)F)cc1)C(=O)O; X14 = COCCN([C@@H](Cc1ccc(C)cc1)C(=O)[*:2])[*:1]; NPrPhe(4-Me) = CCCN[C@@H](Cc1ccc(C)cc1)C(=O)O; NMeGly(cPent) = CN[C@H](C(=O)O)C1CCCC1; Hyp = O=C(O)[C@@H]1C[C@@H](O)CN1; NMeD = CN[C@@H](CC(=O)O)C(=O)O; NMeL = CN[C@@H](CC(C)C)C(=O)O; Morpholide = C1CN(*)CCO1; Ac5c = NC1(C(=O)O)CCCC1; Ac4c = NC1(C(=O)O)CCC1; NEtG = CCNCC(=O)O; Sar = CNCC(=O)O

Experiments:
[1] = tested on: human lung cancer strain NCI-H441; assay type: cell-based
Outline: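 Step one: dispense the test compound in serial DMSO dilutions. Step three: add the reagent and measure […].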

[2] = biological target: GDP-bound NRAS wild-type protein (Homo sapiens, UniProt P01111); assay: Binding to NRAS by surface plasmon resonance (SPR), KD and KD ratio to KRAS
Outline: (§1)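 Biotinylated GDP-bound RAS was captured at about 100–300 RU. Running buffer: HBS pH 7.4, 10 mM MgCl2, 10 µM GDP, 1 mM DTT, 0.01% Tween 20, 4% DMSO.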

HRAS wild-type protein = HRAS wild-type protein (Homo sapiens, UniProt P01112); assay: Binding to HRAS by surface plasmon resonance (SPR), KD and KD ratio to KRAS
Outline: as §1

[3] = ratio of KD for GDP-bound NRAS wild-type protein to KD for KRAS
[4] = ratio of KD for HRAS wild-type protein to KD for KRAS
[5] = ratio of the KD value with respect to GDP-bound NRAS wild-type protein to the KD value with respect to KRAS
[6] = ratio of the KD value with respect to HRAS wild-type protein to the KD value with respect to KRAS
[7] = ratio of KD value for GDP-bound NRAS wild-type protein to KD value for KRAS (SPR)
[8] = ratio of KD value for HRAS wild-type protein to KD value for KRAS (SPR)

Sequence of HRAS wild-type protein (P01112 whole entry): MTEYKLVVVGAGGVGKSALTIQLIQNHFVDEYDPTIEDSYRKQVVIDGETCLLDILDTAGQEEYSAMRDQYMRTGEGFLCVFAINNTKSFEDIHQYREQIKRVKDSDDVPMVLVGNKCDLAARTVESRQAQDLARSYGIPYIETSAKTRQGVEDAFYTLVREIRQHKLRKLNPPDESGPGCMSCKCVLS
Sequence of GDP-bound NRAS wild-type protein (P01111 whole entry): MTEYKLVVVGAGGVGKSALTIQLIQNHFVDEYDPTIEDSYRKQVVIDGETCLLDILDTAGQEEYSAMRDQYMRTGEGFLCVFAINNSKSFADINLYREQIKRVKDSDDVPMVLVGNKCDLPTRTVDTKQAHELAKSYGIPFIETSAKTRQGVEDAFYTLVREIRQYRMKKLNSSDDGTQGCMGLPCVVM

IC50 [1] | Compound | NRAS /KRAS [2, 5] | HRAS /KRAS (HRAS wild-type protein; [6]) | further results
6.1 nM | CCCN1C(=O)CN(C)C(=O)CN(C)C(=O)[C@H]([C@@H](C)CC)NC(=O)[C@H](CC(C)C)N(C)C(=O)C[C@@H](C(=O)N2CCOCC2)N(C)C(=O)[C@H](C2CCCC2)N(C)C(=O)C2(CCCC2)NC(=O)[C@@H]2CCCN2C(=O)[C@H](CCc2ccc(C(F)(F)F)c(Cl)c2)NC(=O)CN(C)C(=O)[C@@H]1Cc1ccc(C)cc1 [PP0059] ([NMeL]I[Sar][Sar][NPrPhe(4-Me)][Sar][hPhe(3-Cl-4-CF3)]P[Ac5c][NMeGly(cPent)][NMeD]-Morpholide; lactam N-11) | – | – | NRAS /KRAS [2, 3]: B (a compound having 3 or more and less than 10 is denoted as B); HRAS /KRAS (HRAS wild-type protein; [4]): C (A compound having a KD ratio of 0.1 or more and less than 3 is denoted as C)
5.1 nM | CCCN1C(=O)CN(C)C(=O)CN(CC)C(=O)[C@H]([C@@H](C)CC)NC(=O)[C@H](CC(C)C)N(C)C(=O)C[C@@H](C(=O)N2CCOCC2)N(C)C(=O)[C@H](C2CCCC2)N(C)C(=O)C2(CCC2)NC(=O)[C@@H]2C[C@@H](OCC)CN2C(=O)[C@H](CCc2ccc(C(F)(F)F)c(Cl)c2)NC(=O)CN(C)C(=O)[C@@H]1Cc1ccc(C(F)(F)F)cc1 [PP0401] ([NMeL]I[NEtG][Sar][NPrPhe(4-CF3)][Sar][hPhe(3-Cl-4-CF3)][Hyp](Et)[Ac4c][NMeGly(cPent)][NMeD]-Morpholide; lactam N-11) | B (a compound having 3 or more and less than 10 is denoted as B) | B (a compound having 3 or more and less than 10 is denoted as B) | –
283 nM | CC[C@H](C)[C@@H]1NC(=O)[C@H](CC(C)C)N(C)C(=O)C[C@@H](C(=O)N2CCOCC2)N(C)C(=O)[C@H](C2CCCC2)N(C)C(=O)C(C)(C)NC(=O)[C@@H]2CCCN2C(=O)[C@H](CCc2cc(F)c(C(F)(F)F)c(F)c2)NC(=O)CN(C)C(=O)[C@H](Cc2ccc(C(F)(F)F)cc2)N2CCCCC[C@@H](C2=O)N(C)C(=O)CN(C)C1=O [PP0503] | A (a compound having 10 or more and less than 20 is denoted as A) | B (a compound having 3 or more and less than 10 is denoted as B) | –
8.4 nM | CCO[C@@H]1C[C@H]2C(=O)NC3(CC(C)(C)C3)C(=O)N(C)[C@@H](C3CCCC3)C(=O)N(C)[C@H](C(=O)N(C)C)CC(=O)N(C)[C@@H](CC3CCC3)C(=O)N[C@@H]([C@@H](C)CC)C(=O)N(C)CC(=O)N(C)[C@H]3C/C=C\CCN(C3=O)[C@@H](Cc3ccc(C(F)(F)F)cc3)C(=O)N(C)CC(=O)N[C@@H](CCc3cc(F)c(Cl)c(F)c3)C(=O)N2C1 [PP1762] | – | – | NRAS /KRAS [2, 7]: A (a compound having 10 or more and less than 20 is denoted as A); HRAS /KRAS (HRAS wild-type protein; [8]): A (a compound having 10 or more and less than 20 is denoted as A)
3 nM | CCCOC[C@H]1C(=O)N[C@@H]([C@@H](C)CC)C(=O)N(C)CC(=O)N(C)[C@H]2C/C=C\CCN(C2=O)[C@@H](Cc2ccc(C(F)(F)F)cc2)C(=O)N(C)CC(=O)N[C@@H](CCc2ccc(C(F)(F)F)c(Cl)c2)C(=O)N2C[C@H](OCC)C[C@H]2C(=O)NC2(CC(C)(C)C2)C(=O)N(C)[C@@H](C2CCCC2)C(=O)N(C)[C@H](C(=O)N(C)C)CC(=O)N1C [PP1754] | – | – | NRAS /KRAS [2, 7]: A (a compound having 10 or more and less than 20 is denoted as A); HRAS /KRAS (HRAS wild-type protein; [8]): A (a compound having 10 or more and less than 20 is denoted as A)
– | CCC[C@H]1C(=O)N[C@@H]([C@@H](C)CC)C(=O)N(C2CC2)CC(=O)N(C)[C@H]2C/C=C\CCN(C2=O)[C@@H](Cc2ccc(C)cc2)C(=O)N(C)CC(=O)N[C@@H](CCc2ccc(C3CC3)c(F)c2)C(=O)N2C[C@H](OCC)C[C@H]2C(=O)NC2(CC(C)(C)C2)C(=O)N(C)[C@@H](C2CCCC2)C(=O)N(C)[C@H](C(=O)N(C)C)CC(=O)N1C [PP2884] | – | – | IC50 ([1]; NCI-H441 cells, 4 days, CellTiter-Glo, read-out: NCl-H441 IC50): 35.9 nM; NRAS /KRAS [2, 3]: A (a compound having 10 or more and less than 20 is denoted as A); HRAS /KRAS (HRAS wild-type protein; [4]): A (a compound having 10 or more and less than 20 is denoted as A)
2.2 nM | CCCN1C(=O)CN(C)C(=O)CN(CC)C(=O)[C@H]([C@@H](C)CC)NC(=O)[C@H](CC(C)C)N(C)C(=O)C[C@@H](C(=O)N(C)C)N(C)C(=O)[C@H](C2CCCC2)N(C)C(=O)C2(CCCC2)NC(=O)[C@@H]2C[C@@H](OCC)CN2C(=O)[C@H](CCc2ccc(C(F)(F)F)c(Cl)c2)NC(=O)CN(C)C(=O)[C@@H]1Cc1ccc(C(F)(F)F)cc1 [PP0427] ([NMeL]I[NEtG][Sar][NPrPhe(4-CF3)][Sar][hPhe(3-Cl-4-CF3)][Hyp](Et)[Ac5c][NMeGly(cPent)][NMeD]-NMe2; lactam N-11) | B (a compound having 3 or more and less than 10 is denoted as B) | C (A compound having a KD ratio of 0.1 or more and less than 3 is denoted as C) | –
968 nM | CCO[C@@H]1C[C@H]2C(=O)NC3(CCC3)C(=O)N(C)[C@@H](C3CCCC3)C(=O)N(C)[C@H](C(=O)N(C)C)CC(=O)N(C)[C@@H](CC)C(=O)N[C@@H]([C@@H](C)CC)C(=O)N(C)CC(=O)N(C)[C@H]3CC/C=C(/C)CN(C3=O)[C@@H](Cc3ccc(C(F)(F)F)cc3)C(=O)N(C)CC(=O)N[C@@H](CCc3cc(F)c(C(F)(F)F)c(F)c3)C(=O)N2C1 [PP1334] | – | – | NRAS /KRAS ([2]; ratio of KD with respect to GDP-bound NRAS wild-type protein to KD with respect to KRAS): B (a compound having 3 or more and less than 10 is denoted as B); HRAS /KRAS (HRAS wild-type protein; ratio of KD with respect to HRAS wild-type protein to KD with respect to KRAS): B (a compound having 3 or more and less than 10 is denoted as B)
14.8 nM | CCO[C@@H]1C[C@H]2C(=O)NC3(CC(C)(C)C3)C(=O)N(C)[C@@H](C(CC)CC)C(=O)N(C)[C@H](C(=O)N3CCCC3)CC(=O)N(C)[C@@H](COC)C(=O)N[C@@H]([C@@H](C)CC)C(=O)N(C)CC(=O)N(C)[C@H]3C/C=C\CCN(C3=O)[C@@H](Cc3ccc(C(F)(F)F)cc3)C(=O)N(C)CC(=O)N[C@@H](CCc3ccc(C(F)(F)F)c(Cl)c3)C(=O)N2C1 [PP2128] | AA (a compound having 20 or more is denoted as AA) | A (a compound having 10 or more and less than 20 is denoted as A) | –
79.1 nM | CC[C@H](C)[C@@H]1NC(=O)[C@@H](CC(C)C)N(C)C(=O)C[C@@H](C(=O)N(C)C)N(C)C(=O)[C@@H](C2CCCC2)N(C)C(=O)C2(CCCC2)NC(=O)[C@@H]2CCCN2C(=O)[C@H](CCc2ccc(C(F)(F)F)c(Cl)c2)NC(=O)CN(C)C(=O)[C@@H](Cc2ccc(C)cc2)N2CC/C=C\CCN(CC2=O)C(=O)CN(C)C1=O [PP0618] | C (A compound having a KD ratio of 0.1 or more and less than 3 is denoted as C) | C (A compound having a KD ratio of 0.1 or more and less than 3 is denoted as C) | –
6.7 nM | CC[C@H](C)[C@@H]1NC(=O)[C@H](CC(C)C)N(C)C(=O)C[C@@H](C(=O)N2CCOCC2)N(C)C(=O)[C@H](C2CCCC2)N(C)C(=O)C2(CCCC2)NC(=O)[C@@H]2CCCN2C(=O)[C@H](CCc2ccc(C(F)(F)F)c(Cl)c2)NC(=O)CN(C)C(=O)[C@H](Cc2ccc(C)cc2)N(CCOC)C(=O)CN(C)C(=O)CN(C)C1=O [PP0104] ([NMeL]I[Sar][Sar][X14][Sar][hPhe(3-Cl-4-CF3)]P[Ac5c][NMeGly(cPent)][NMeD]-Morpholide; lactam N-11) | – | – | NRAS /KRAS [2, 3]: B (a compound having 3 or more and less than 10 is denoted as B); HRAS /KRAS (HRAS wild-type protein; [4]): C (A compound having a KD ratio of 0.1 or more and less than 3 is denoted as C)
4.6 nM | CCO[C@@H]1C[C@H]2C(=O)NC3(CC(C)(C)C3)C(=O)N(C)[C@@H](C3CCCC3)C(=O)N(C)[C@H](C(=O)N(C)C)CC(=O)N(C)[C@@H](C)C(=O)N[C@@H]([C@@H](C)CC)C(=O)N(C)CC(=O)N(C)[C@H]3C/C=C\CCN(C3=O)[C@@H](Cc3ccc(C(F)(F)F)cc3)C(=O)N(C)CC(=O)N[C@@H](CCc3cc(F)c(C(F)(F)F)c(F)c3)C(=O)N2C1 [PP1641] | – | – | NRAS /KRAS [2, 7]: A (a compound having 10 or more and less than 20 is denoted as A); HRAS /KRAS (HRAS wild-type protein; [8]): A (a compound having 10 or more and less than 20 is denoted as A)
2.6 nM | CC[C@H](C)[C@@H]1NC(=O)[C@H](CC(F)(F)F)N(C)C(=O)C[C@@H](C(=O)N(C)C)N(C)C(=O)[C@H](C2CCCC2)N(C)C(=O)C2(CC(C)(C)C2)NC(=O)[C@@H]2C[C@H](C)CN2C(=O)[C@H](CCc2cc(F)c(C(F)(F)F)c(F)c2)NC(=O)CN(C)C(=O)[C@H](Cc2ccc(C(F)(F)F)cc2)N2CC/C=C\C[C@@H](C2=O)N(C)C(=O)CN(C)C1=O [PP1682] | – | – | NRAS /KRAS [2, 7]: AA (a compound having 20 or more is denoted as AA); HRAS /KRAS (HRAS wild-type protein; [8]): A (a compound having 10 or more and less than 20 is denoted as A)
18.3 nM | CCCN1C(=O)CN(C)C(=O)CN(C)C(=O)[C@H]([C@@H](C)CC)NC(=O)[C@H](CC(C)C)N(C)C(=O)C[C@@H](C(=O)N2CCOCC2)N(C)C(=O)[C@H](C2CCCC2)N(C)C(=O)C2(CCCC2)NC(=O)CN(CC)C(=O)[C@H](CCc2ccc(C(F)(F)F)c(Cl)c2)NC(=O)CN(C)C(=O)[C@@H]1Cc1ccc(C(F)(F)F)cc1 [PP0144] ([NMeL]I[Sar][Sar][NPrPhe(4-CF3)][Sar][hPhe(3-Cl-4-CF3)][NEtG][Ac5c][NMeGly(cPent)][NMeD]-Morpholide; lactam N-11) | – | – | NRAS /KRAS [2, 3]: B (a compound having 3 or more and less than 10 is denoted as B); HRAS /KRAS (HRAS wild-type protein; [4]): C (A compound having a KD ratio of 0.1 or more and less than 3 is denoted as C)
